The results in this text go back to ChEMBL document CHEMBL1127650, “Investigation of the active site of aminopeptidase A using a series of new thiol-containing inhibitors” (J Med Chem, 1994).

One assay addresses Aminopeptidase B (Homo sapiens, UniProt Q9H4A4). The experiment in a line: Inhibition of arginylaminopeptidase (aminopeptidase B). The arrangement: species or system Oryctolagus cuniculus.
In assay [1] the test system is Glutamyl aminopeptidase (Oryctolagus cuniculus). The experiment in a line: Inhibition of aminopeptidase A (APA) at 0.4 mM.

Aminopeptidase B, sequence (Q9H4A4 whole entry): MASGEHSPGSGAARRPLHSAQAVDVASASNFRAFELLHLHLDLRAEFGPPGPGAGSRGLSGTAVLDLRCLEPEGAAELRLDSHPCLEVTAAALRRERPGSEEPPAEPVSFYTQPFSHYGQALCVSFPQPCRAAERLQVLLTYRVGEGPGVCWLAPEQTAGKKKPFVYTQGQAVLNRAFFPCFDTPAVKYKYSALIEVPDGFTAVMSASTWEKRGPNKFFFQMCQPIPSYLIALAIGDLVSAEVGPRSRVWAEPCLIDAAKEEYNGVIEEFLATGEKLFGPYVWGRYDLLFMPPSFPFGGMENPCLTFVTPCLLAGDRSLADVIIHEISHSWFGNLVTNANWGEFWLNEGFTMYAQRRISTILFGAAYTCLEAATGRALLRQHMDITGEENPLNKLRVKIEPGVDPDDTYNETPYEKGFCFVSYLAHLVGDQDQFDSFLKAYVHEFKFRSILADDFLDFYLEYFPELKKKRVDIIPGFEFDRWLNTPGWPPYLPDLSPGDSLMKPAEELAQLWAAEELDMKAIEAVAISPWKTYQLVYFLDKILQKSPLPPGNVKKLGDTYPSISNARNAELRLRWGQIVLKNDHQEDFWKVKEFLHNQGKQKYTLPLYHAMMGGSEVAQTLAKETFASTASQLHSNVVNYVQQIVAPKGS

As for `NCCCCC(S)C(=O)O` (centres undefined), the Ki (commonly a dissociation constant, usually derived from enzyme kinetics or from competition with a known ligand) at Aminopeptidase B worked out at 0.9 nM.
As for `NC(CC(=O)O)Cc1ccccc1` (centres undefined), the inhibition (as a rule, the drop in the measured response relative to a control, in per cent) in assay [1] turned out to be 0%.
Same read-out and setting: with `NC(CC(=O)NO)Cc1ccccc1` (centres undefined) the figure was 0%; with `NC(Cc1ccccc1)CP(=O)(O)O` (centres undefined), 13%.
